Test results from patent US20260053811A1, “METHODS OF TREATING HYPERTENSION IN OBESE SUBJECTS” (Mineralys Therapeutics, Inc., priority 2022, published 2026).

System: hypertensive subjects
Assay: Seated automated office blood pressure (AOBP) in randomized, placebo-controlled, dose-ranging study
Type: in vivo, human
Design: Difference from placebo in change in blood pressure: unit not given here
Protocol: A randomized, double-blinded, placebo-controlled, dose-ranging, multicenter study was conducted to evaluate the effect of orally administered Compound A HBr on blood pressure for the treatment of hypertension in male and female subjects ≥18 years of age.
The study consists of two parts. For enrollment into Part 1 of the study, a subject's value of plasma renin activity (PRA) must be ≤1 ng/mL/h based on morning measurement. If the value of PRA >1 ng/mL/h based on morning measurement, then subjects may be eligible to enter Part 2 of the study.
For Part 1, 163 enrolled subjects ≥18 years of age were randomized into 6 equal treatment groups (1:1:1:1:1:1) to 12.5 mg BID, 25 mg BID, 12.5 mg QD, 50 mg QD, 100 mg QD, or placebo. After a review of interim clinical data, the 2 lowest dose levels (12.5 mg QD and 12.5 mg BID) were stopped for future randomization due to a lack of consistent meaningful reduction of blood pressure, but the patients randomized to that point remained in the study through completion. Thus, after the review of interim clinical data, subjects were randomized into 4 equal treatment groups (1:1:1:1) to 25 mg BID, 50 mg QD, 100 mg QD, or placebo.
For Part 2, 36 enrolled subjects ≥18 years of age were randomized (5:1) to either 100 mg QD Compound A HBr or placebo such that the Compound A HBr treatment group consisted of approximately 30 subjects and the placebo treatment group will consist of approximately 6 subjects.
Subjects orally administered the assigned study drug (Compound A HBr or placebo) according to the assigned dosing regimen for 8 weeks beginning on Study Day 1. All subjects in Part 1 (regardless of dosing group) received BID dosing to preserve the integrity of the blind; active drug is administered as the morning dose for all QD dose groups. Subjects returned to the research facility or were seen by the clinical investigator or approved home health care professional at the end of Study Weeks 1, 2, 3, 4, 5, 6, 7, and 8 (±2 days) for protocol-defined efficacy and safety assessments and procedures, assessment of adverse events (AEs), and confirmation of compliance with study drug usage. Subjects also completed a telephone visit and blood pressure (BP) check at home approximately 3 days post last dose of study drug. Subjects attended up to 14 full clinic visits, including a pre-Screening visit, a Screening/start of Placebo Run-in visit, a second visit during Placebo Run-in, a clinic visit to initiate the ABPM procedure, a Randomization visit, 8 weekly visits during double-blind treatment, and an end-of-study visit scheduled 4 weeks after the last study treatment for final efficacy and safety assessments.
An automated oscillometric sphygmomanometer device was used to measure the subjects' systolic and diastolic blood pressure in office after approximately 5 minutes of rest in the seated position.
The primary endpoint is the change in office-measured (mean of last 2 of 5 unattended measurements using an automated oscillometric sphygmomanometer device after approximately 5 minutes of rest in the seated position) systolic blood pressure (SBP) from baseline to the end of Study Week 8.
Secondary endpoints of this study were: • (a) Change in 24-hour ambulatory blood pressure monitoring (ABPM) parameters (systolic and diastolic) from baseline to the end of Study Week 7. • (b) Change in office-measured SBP from baseline to the end of Study Weeks 1, 2, 3, 4, 5, 6, and 7. • (c) Change in office-measured diastolic blood pressure (DBP) from baseline to the end of Study Weeks 1, 2, 3, 4, 5, 6, 7, and 8. • (d) Proportion of subjects who achieve office-measured BP of ≤130/80 mm Hg by the end of Study Week 8.

[1] = 12.5 mg QD, Week 1, Part 1, FAS
[2] = 12.5 mg QD, Week 2, Part 1, FAS
[3] = 12.5 mg QD, Week 3, Part 1, FAS
[4] = 12.5 mg QD, Week 4, Part 1, FAS
[5] = 12.5 mg QD, Week 5, Part 1, FAS
[6] = 12.5 mg QD, Week 6, Part 1, FAS
[7] = 12.5 mg QD, Week 7, Part 1, FAS
[8] = 12.5 mg QD, Week 8, Part 1, FAS

## CC(=O)N[C@H]1CC[C@H](NC(=O)CN2CCN(c3nncc(-c4ccc(C)cc4)n3)CC2)CC1 [Compound A HBr]
12.5 mg QD, BMI >30
  Difference from placebo in change in blood pressure: −2.5
12.5 mg QD, Baseline BPsys Low tertile
  Difference from placebo in change in blood pressure: −10.7
12.5 mg QD, Thiazide No
  Difference from placebo in change in blood pressure: 2.6
[1]
  Seated AOBP DBP change from baseline (CFB), Mean (SD): 2.87 (12.31) mmHg
  Seated AOBP DBP, Mean (SD): 85.26 (13.88) mmHg
  Seated AOBP SBP change from baseline (CFB), Mean (SD): −5.65 (13.96) mmHg
  Seated AOBP SBP, Mean (SD): 141.43 (15.98) mmHg
[2]
  Seated AOBP DBP change from baseline (CFB), Mean (SD): 0.68 (8.89) mmHg
  Seated AOBP DBP, Mean (SD): 81.23 (9.21) mmHg
  Seated AOBP SBP change from baseline (CFB), Mean (SD): −1.86 (16.36) mmHg
  Seated AOBP SBP, Mean (SD): 143.73 (17.32) mmHg
[3]
  Seated AOBP DBP change from baseline (CFB), Mean (SD): −1.20 (9.13) mmHg
  Seated AOBP DBP, Mean (SD): 81.80 (13.73) mmHg
  Seated AOBP SBP change from baseline (CFB), Mean (SD): −4.15 (13.14) mmHg
  Seated AOBP SBP, Mean (SD): 142.80 (18.14) mmHg
[4]
  LSM Δ with Placebo, seated AOBP DBP (MMRM): −1.96 mmHg
  Modelled (MMRM) LSM (SEM) change from baseline, seated AOBP DBP: −2.50 (1.60) mmHg
  Seated AOBP DBP change from baseline (CFB), Mean (SD): −1.80 (9.84) mmHg
  Seated AOBP DBP, Mean (SD): 81.20 (14.03) mmHg
  Seated AOBP SBP change from baseline (CFB), Mean (SD): −3.95 (15.74) mmHg
  Seated AOBP SBP, Mean (SD): 143.00 (18.03) mmHg
[5]
  Seated AOBP DBP change from baseline (CFB), Mean (SD): 0.82 (14.46) mmHg
  Seated AOBP DBP, Mean (SD): 83.74 (14.32) mmHg
  Seated AOBP SBP change from baseline (CFB), Mean (SD): −3.53 (12.49) mmHg
  Seated AOBP SBP, Mean (SD): 144.21 (13.11) mmHg
[6]
  Seated AOBP DBP change from baseline (CFB), Mean (SD): −4.17 (10.04) mmHg
  Seated AOBP DBP, Mean (SD): 79.06 (13.07) mmHg
  Seated AOBP SBP change from baseline (CFB), Mean (SD): −8.64 (16.52) mmHg
[7]
  Seated AOBP DBP change from baseline (CFB), Mean (SD): −6.11 (12.05) mmHg
  Seated AOBP DBP, Mean (SD): 77.11 (12.74) mmHg
  Seated AOBP SBP change from baseline (CFB), Mean (SD): −11.08 (19.26) mmHg
  Seated AOBP SBP, Mean (SD): 136.56 (19.58) mmHg
[8]
  LSM Δ from Placebo, change from baseline in seated AOBP SBP (MMRM): −1.53 mmHg
  LSM Δ with Placebo, seated AOBP DBP (MMRM): −2.12 mmHg
  Modelled (MMRM) LSM (SEM) change from baseline, seated AOBP DBP: −3.76 (2.02) mmHg
  Modelled (MMRM) LSM (SEM) change from baseline, seated AOBP SBP: −5.63 (3.16) mmHg
  Seated AOBP DBP change from baseline (CFB), Mean (SD): −1.78 (13.33) mmHg
  Seated AOBP DBP, Mean (SD): 81.44 (17.24) mmHg
  Seated AOBP SBP change from baseline (CFB), Mean (SD): −6.86 (19.85) mmHg
  Seated AOBP SBP, Mean (SD): 140.78 (22.01) mmHg
  Subjects with seated AOBP SBP/DBP ≤130/80 mmHg: No: 17 (73.9) n (%)
  Subjects with seated AOBP SBP/DBP ≤130/80 mmHg: Yes: 6 (26.1) n (%)
25 mg BID, BMI 25-30
  Difference from placebo in change in blood pressure: −1.1
25 mg BID, BMI >30
  Difference from placebo in change in blood pressure: −9.1
25 mg BID, Part 1, Week 8
  Proportion of subjects with AOBP ≤130/80 mmHg: 43.3%
25 mg BID, Thiazide No
  Difference from placebo in change in blood pressure: −4.7
